Values quoted from earlier work in patent publication US6339092B1, “Metalloprotease inhibitors” (Adir et Compagnie, priority 1999, dated 2002).

Tested on: ovarian cancers
Details: Becket el al., DDT 1996; cited from earlier work

**Q.** With `CNC(=O)[C@H](Cc1ccccc1)NC(=O)[C@H](CC(C)C)[C@H](CSc1cccs1)C(=O)NO` [BB94] as the molecule, how does the “anti-tumour activity in clinical use” value read?
**A.** Its value is “active against ovarian cancers”.
